Experimental data published in ChEMBL document CHEMBL1147687, “Identification and characterization of amino-piperidinequinolones and quinazolinones as MCHr1 antagonists” (Bioorg Med Chem Lett, 2006).

Experiments:
[1] = molecular target: T1, Melanin-concentrating hormone receptor 1 (Homo sapiens, UniProt Q99705); assay: Inhibition of MCH-mediated calcium release in whole IMR32 cells by FLIPR; type: functional, cell-based, IMR-32
[2] = molecular target: Voltage-gated inwardly rectifying potassium channel KCNH2 (Homo sapiens, UniProt Q12809); assay: Binding affinity to hERG stably transfected in HEK293 cells; type: cell-based
[3] = molecular target: T1, Melanin-concentrating hormone receptor 1; assay: Displacement of [125I]MCH from MCHr1 expressed in IMR32 cells; type: cell-based, IMR-32
[4] = AUC in DIO mouse brain at 10 mg/kg; type: ADME, organism-based; parameters: dose 10 mg/kg
[5] = Cmax in DIO mouse plasma at 10 mg/kg; type: ADME, organism-based; parameters: dose 10 mg/kg
[6] = Plasma half life in DIO mouse at 10 mg/kg; type: ADME, organism-based; parameters: dose 10 mg/kg
[7] = Half life in DIO mouse brain at 10 mg/kg; type: ADME, organism-based; parameters: dose 10 mg/kg
[8] = AUC in DIO mouse plasma at 10 mg/kg; type: ADME, organism-based; parameters: dose 10 mg/kg
[9] = Cmax in DIO mouse brain at 10 mg/kg; type: ADME, organism-based; parameters: dose 10 mg/kg
[10] = Brain to plasma AUC ratio in DIO mouse at 10 mg/kg; type: ADME, organism-based; parameters: dose 10 mg/kg; details: read-out: Ratio AUC

Chain of Voltage-gated inwardly rectifying potassium channel KCNH2 (Q12809 whole entry): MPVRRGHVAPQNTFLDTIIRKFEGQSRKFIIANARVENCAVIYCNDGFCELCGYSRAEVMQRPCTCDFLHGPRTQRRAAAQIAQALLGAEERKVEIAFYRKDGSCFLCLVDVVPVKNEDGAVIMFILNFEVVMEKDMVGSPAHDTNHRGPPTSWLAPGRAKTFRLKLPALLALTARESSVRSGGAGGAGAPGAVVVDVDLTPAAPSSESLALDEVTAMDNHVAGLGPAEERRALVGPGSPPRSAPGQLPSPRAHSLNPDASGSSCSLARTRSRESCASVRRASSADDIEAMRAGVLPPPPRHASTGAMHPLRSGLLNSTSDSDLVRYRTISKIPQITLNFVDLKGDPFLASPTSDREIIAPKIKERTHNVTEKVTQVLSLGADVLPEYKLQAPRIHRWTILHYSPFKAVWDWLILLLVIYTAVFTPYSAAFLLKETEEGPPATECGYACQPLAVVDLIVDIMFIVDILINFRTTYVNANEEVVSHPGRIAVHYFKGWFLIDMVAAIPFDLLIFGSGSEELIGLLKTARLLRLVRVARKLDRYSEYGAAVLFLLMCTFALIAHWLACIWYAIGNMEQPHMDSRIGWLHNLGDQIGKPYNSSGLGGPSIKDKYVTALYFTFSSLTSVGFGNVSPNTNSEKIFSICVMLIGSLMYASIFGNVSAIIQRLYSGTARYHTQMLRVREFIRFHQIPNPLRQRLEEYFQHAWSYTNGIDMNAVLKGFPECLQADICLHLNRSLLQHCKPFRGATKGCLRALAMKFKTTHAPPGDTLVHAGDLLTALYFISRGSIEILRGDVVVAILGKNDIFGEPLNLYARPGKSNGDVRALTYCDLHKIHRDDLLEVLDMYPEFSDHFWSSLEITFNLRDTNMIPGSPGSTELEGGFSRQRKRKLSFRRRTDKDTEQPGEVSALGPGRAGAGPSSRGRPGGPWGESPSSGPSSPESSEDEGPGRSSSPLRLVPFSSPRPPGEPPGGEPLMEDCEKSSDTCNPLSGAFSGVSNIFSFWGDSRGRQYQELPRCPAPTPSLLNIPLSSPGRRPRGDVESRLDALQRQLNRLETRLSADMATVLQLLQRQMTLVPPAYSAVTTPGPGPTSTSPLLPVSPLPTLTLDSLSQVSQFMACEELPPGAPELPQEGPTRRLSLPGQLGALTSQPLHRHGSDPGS
T1 sequence (Q99705 whole entry): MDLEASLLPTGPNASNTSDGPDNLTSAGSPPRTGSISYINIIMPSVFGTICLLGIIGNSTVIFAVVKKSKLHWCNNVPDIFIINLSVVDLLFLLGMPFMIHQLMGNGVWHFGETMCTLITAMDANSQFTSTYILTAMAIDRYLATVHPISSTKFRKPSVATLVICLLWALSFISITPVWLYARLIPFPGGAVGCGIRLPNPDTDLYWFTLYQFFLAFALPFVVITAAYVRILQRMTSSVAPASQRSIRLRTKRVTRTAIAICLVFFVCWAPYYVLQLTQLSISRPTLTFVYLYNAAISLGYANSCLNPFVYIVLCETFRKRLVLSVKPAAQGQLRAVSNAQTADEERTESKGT

In the case of `COc1ccc2c(c1)c(NC1CCN(Cc3ccc4c(c3)OCO4)CC1)cc(=O)n2C`, the IC50 [1] is reported as 20 nM, the Ki [2] is reported as 778 nM and the IC50 [3] is reported as 3 nM.

`Cn1c(=O)nc(NC2CCN(Cc3ccc4c(c3)OCO4)CC2)c2cc(Cl)ccc21` showed an AUC [4] of 650 ng·h/mL, a Cmax [5] of 2200 ng/mL and a half-life [6] of 1.6 h. The half-life [7] was 1.9 h, the IC50 [1] was 62 nM and the AUC [8] was 5100 ng·h/mL. The Cmax [9] was 230 ng/mL, the Ki [2] was 150 nM and the IC50 [3] was 5 nM. For the same molecule, the Kp [10] was 0.13.

With `O=c1nc(NC2CCN(Cc3ccc4c(c3)OCO4)CC2)c2cc(Cl)ccc2n1CC(F)(F)F` the IC50 [1] was 29 nM, the Ki [2] was 445 nM and the IC50 [3] was 2 nM.

With `Cn1c(=O)cc(NC2CCN(Cc3ccc4c(c3)OCO4)CC2)c2cc(OC(F)F)ccc21` the IC50 [1] was 34 nM, the Ki [2] was greater than 2000 nM and the IC50 [3] was 5 nM.

In the case of `O=c1nc(NC2CCN(Cc3ccc4ccccc4c3)CC2)c2cc(Cl)ccc2n1CC(F)(F)F`, the IC50 [1] is reported as 62 nM, the Ki [2] is reported as 150 nM and the IC50 [3] is reported as 5 nM.

Work on `Cn1c(=O)nc(NC2CC3CCC(C2)N3Cc2ccc3c(c2)OCO3)c2cc(Cl)ccc21` (stereo in doubt; 4i) yielded an IC50 [1] of 136 nM and an IC50 [3] of 68 nM.

Work on `O=c1cc(NC2CCN(Cc3ccc4c(c3)OCO4)CC2)c2cc(Cl)ccc2n1Cc1ccncc1` yielded an AUC [4] of 730 ng·h/mL, a Cmax [5] of 680 ng/mL and a half-life [6] of 2.3 h. For the same molecule, the half-life [7] was 2.5 h, the IC50 [1] was 29 nM and the AUC [8] was 2100 ng·h/mL. The Cmax [9] was 200 ng/mL, the Ki [2] was 355 nM and the IC50 [3] was 1.1 nM. For the same molecule, the Kp [10] was 0.29.

In the case of `O=c1nc(NC2CC3CCC(C2)N3Cc2ccc3c(c2)OCO3)c2cc(Cl)ccc2n1CC(F)(F)F` (stereo not drawn), the IC50 [1] is reported as 31 nM, the Ki [2] is reported as 120 nM and the IC50 [3] is reported as 4 nM.

With `Cn1c(=O)nc(NC2CCN(Cc3ccc4ccccc4c3)CC2)c2cc(Cl)ccc21` the IC50 [1] was 72 nM, the Ki [2] was 160 nM and the IC50 [3] was 7 nM.

`N#Cc1c(NC2CCN(Cc3ccc4c(c3)OCO4)CC2)c2cc(Cl)ccc2[nH]c1=O` gave an IC50 [1] of 20 nM, a Ki [2] of 420 nM and an IC50 [3] of 15 nM.

Molecule `Cn1c(=O)c(C(=O)N2CCCC2)c(NC2CCN(Cc3ccc4c(c3)OCO4)CC2)c2cc(Cl)ccc21` has an IC50 [1] of 53 nM, a Ki [2] greater than 2000 nM and an IC50 [3] of 16 nM.

`Cn1c(=O)c(C#N)c(NC2CCN(Cc3ccc4ccccc4c3)CC2)c2cc(Cl)ccc21` gave an IC50 [1] of 194 nM, a Ki [2] greater than 2000 nM and an IC50 [3] of 12 nM.

`O=c1cc(NC2CCN(Cc3ccc4c(c3)OCO4)CC2)c2cc(Cl)ccc2n1Cc1ccccc1` showed an IC50 [1] of 42 nM, a Ki [2] of 280 nM and an IC50 [3] of 0.8 nM.

Work on `Cn1c(=O)cc(NC2CCN(Cc3ccc4ccccc4c3)CC2)c2cc(Cl)ccc21` yielded an IC50 [1] of 100 nM, a Ki [2] of 215 nM and an IC50 [3] of 5 nM.

`CCCCCn1c(=O)nc(NC2CCN(Cc3ccc4c(c3)OCO4)CC2)c2cc(Cl)ccc21` showed an IC50 [1] of 50 nM, a Ki [2] of 135 nM and an IC50 [3] of 12 nM.

Work on `Cn1c(=O)cc(NC2CCN(C/C=C/c3ccccc3)CC2)c2cc(Cl)ccc21` yielded an IC50 [1] of 88 nM, a Ki [2] of 30 nM and an IC50 [3] of 10 nM.

In the case of `Cn1c(=O)nc(NC2CCN(Cc3ccc4ncccc4c3)CC2)c2cc(Cl)ccc21`, the IC50 [1] is reported as 66 nM and the IC50 [3] is reported as 12 nM.

With `O=c1cc(NC2CCN(Cc3ccc4c(c3)OCO4)CC2)c2cc(Cl)ccc2[nH]1` the IC50 [1] was 26 nM and the IC50 [3] was 4 nM.

For `Cn1c(=O)c(C#N)c(NC2CCN(Cc3ccc4c(c3)OCO4)CC2)c2cc(Cl)ccc21`, the AUC [4] was 620 ng·h/mL, the Cmax [5] was 1600 ng/mL and the half-life [6] was 1.9 h. For the same molecule, the half-life [7] was 2 h, the IC50 [1] was 69 nM and the AUC [8] was 5900 ng·h/mL. For the same molecule, the Cmax [9] was 160 ng/mL, the IC50 [3] was 24 nM and the Kp [10] was 0.11.

For `Cn1c(=O)cc(NC2CCN(Cc3ccc4c(c3)OCO4)CC2)c2cc(OC(F)(F)F)ccc21`, the IC50 [1] was 104 nM, the Ki [2] was 1800 nM and the IC50 [3] was 34 nM.

Molecule `O=c1cc(NC2CCN(Cc3ccc4ccccc4c3)CC2)c2cc(Cl)ccc2n1Cc1ccccn1` has an IC50 [1] of 55 nM, a Ki [2] of 88 nM and an IC50 [3] of 0.9 nM.

For `Cn1c(=O)nc(NC2CC3CCC(C2)N3Cc2ccc3c(c2)OCO3)c2cc(Cl)ccc21` (stereo in doubt; 4g), the IC50 [1] was 53 nM and the IC50 [3] was 9 nM.

For `O=c1cc(NC2CCN(Cc3ccc4c(c3)OCO4)CC2)c2cc(Cl)ccc2n1Cc1ccccn1`, the IC50 [1] was 20 nM, the Ki [2] was 550 nM and the IC50 [3] was 1.2 nM.

For `COC(=O)c1c(NC2CCN(Cc3ccc4c(c3)OCO4)CC2)c2cc(Cl)ccc2n(C)c1=O`, the IC50 [1] was 452 nM, the Ki [2] was 1440 nM and the IC50 [3] was 97 nM.
